# From patent US9884818B2, “Sulphamoylpyrrolamide derivatives and the use thereof as medicaments for the treatment of hepatitis B” (Janssen Sciences Ireland UC, priority 2013, dated 2018)
# pEC50: −log10 of the molar value.
# Legend:
# [1] = tested on: HBV; assay: Anti-HBV activity, HepG2.2.15 stable transfected cell line, HBV DNA from secreted virions by realtime PCR; assay type: cell-based; conditions: Hepatitis B virus, HepG2.2.15, 144 h, HepG2.2.15 cells, 6 days of treatment, HBV DNA from secreted virions; read-out: HepG2 2.15 EC50
# [2] = Cytotoxicity in HepG2 cells, Resazurin viability assay; conditions: human, HepG2 cells, HepG2 4 days CC50 (μM), incubated for 4 days, Resazurin assay
# [3] = tested on: HBV; assay: Anti-HBV activity, HepG2.117 inducibly HBV producing cell line (Tet-off), intracellular HBV DNA by realtime PCR; assay type: cell-based; conditions: Hepatitis B virus, HepG2.117, 72 h, HepG2.117 cells, 3 days of treatment, intracellular HBV DNA; read-out: HepG2 117 EC50
SMILES,pEC50 [1],CC50 at 4 days [2],pEC50 [3]
"Cc1cc(NC(=O)c2c(F)c(S(=O)(=O)N[C@H](C)C(F)(F)F)cn2C)cc(C#N)c1F [Compound 283, N-(3-cyano-4-fluoro-5-methyl-phenyl)-3-fluoro-1-methyl-4-[[(1R)-2,2,2-trifluoro-1-methyl-ethyl]sulfamoyl]pyrrole-2-carboxamide]",7.70,> 25 µM,7.52
"C[C@@H](NS(=O)(=O)c1cc(C(=O)Nc2ccc(F)c(Cl)c2F)n(C)c1)C(F)(F)F [Compound 120, N-(3-Chloro-2,4-difluorophenyl)-1-methyl-4-{[(1R)-2,2,2-trifluoro-1-methylethyl]sulfamoyl}-1H-pyrrole-2-carboxamide]",7.52,> 25 µM,7.52
"Cc1cc(NC(=O)c2cc(S(=O)(=O)NC3(C)COC3)cn2C)ccc1F [Compound 5, N-(4-fluoro-3-methyl-phenyl)-1-methyl-4-[(3-methyloxetan-3-yl)-sulfamoyl]pyrrole-2-carboxamide]",7.52,> 25 µM,7.70
"Cn1cc(S(=O)(=O)NC2(C)CC2)cc1C(=O)Nc1ccc(F)c(C#N)c1 [Compound 244, N-(3-cyano-4-fluoro-phenyl)-1-methyl-4-[(1-methylcyclopropyl)-sulfamoyl]pyrrole-2-carboxamide]",6.85,> 25 µM,6.28
"CC[C@@H](C)NS(=O)(=O)c1cc(C(=O)Nc2ccc(F)c(F)c2)n(C)c1 [Compound 23, N-(3,4-difluorophenyl)-1-methyl-4-[[(1R)-1-methylpropyl]sulfamoyl]pyrrole-2-carboxamide]",7.70,> 25 µM,6.89
"Cn1cc(S(=O)(=O)NCC(F)(F)F)cc1C(=O)Nc1ccc(F)c(Br)c1 [Compound 135, N-(3-Bromo-4-fluorophenyl)-1-methyl-4-[(2,2,2-trifluoroethyl)sulfamoyl]-1H-pyrrole-2-carboxamide]",7.70,> 25 µM,6.59
"CC(NS(=O)(=O)c1cc(C(=O)Nc2ccc(F)c(C#N)c2)n(C)c1)C(F)F (single isomer, unassigned) [Compound 200a, N-(3-Cyano-4-fluorophenyl)-4-{[2,2-difluoro-1-methylethyl]sulfamoyl}-1-methyl-1H-pyrrole-2-carboxamide]",7.00,> 25 µM,7.30
"C[C@@H](NS(=O)(=O)c1cn(C)c(C(=O)Nc2ccc(F)c(Cl)c2F)c1Cl)C(F)(F)F [Compound 218, 3-Chloro-N-(3-chloro-2,4-difluorophenyl)-1-methyl-4-{[(1R)-2,2,2-trifluoro-1-methylethyl]sulfamoyl}-1H-pyrrole-2-carboxamide]",8.05,> 25 µM,8.15
"CC(C)NS(=O)(=O)c1cc(C(=O)Nc2ccc(F)c(Cl)c2F)n(C)c1 [Compound 172, N-(3-Chloro-2,4-difluorophenyl)-1-methyl-4-[(1-methylethyl)sulfamoyl]-1H-pyrrole-2-carboxamide]",7.00,> 25 µM,7.10
"C[C@@H](NS(=O)(=O)c1cn(C)c(C(=O)Nc2ccc(F)c(C#N)c2)c1F)C(F)(F)F [Compound 170, N-(3-Cyano-4-fluorophenyl)-3-fluoro-1-methyl-4-{[(1R)-2,2,2-trifluoro-1-methylethyl]sulfamoyl}-1H-pyrrole-2-carboxamide]",> 8.30,> 100 µM,8.30
"Cc1cccc(F)c1NC(=O)c1c(Cl)c(S(=O)(=O)N[C@H](C)C(F)(F)F)cn1C [Compound 275, 3-chloro-N-(2-fluoro-6-methyl-phenyl)-1-methyl-4-[[(1R)-2,2,2-trifluoro-1-methyl-ethyl]sulfamoyl]pyrrole-2-carboxamide]",6.22,> 25 µM,6.15
"CC(C)NS(=O)(=O)c1cc(C(=O)Nc2ccc(F)c(C#N)c2F)n(C)c1 [Compound 178, N-(3-Cyano-2,4-difluorophenyl)-1-methyl-4-[(1-methylethyl)sulfamoyl]-1H-pyrrole-2-carboxamide]",7.40,> 25 µM,7.05
"CCC(CC)(NS(=O)(=O)c1cc(C(=O)Nc2ccc(F)c(C#N)c2)n(C)c1)C(F)(F)F [Compound 248, N-(3-cyano-4-fluoro-phenyl)-4-{[1-ethyl-1-(trifluoromethyl)propyl]sulfamoyl}-1-methyl-1H-pyrrole-2-carboxamide]",7.52,> 25 µM,7.15
"C[C@@H](NS(=O)(=O)c1cc(C(=O)Nc2ccc(F)c(C#N)c2)n(C)c1)C(C)(F)F [Compound 298, N-(3-cyano-4-fluoro-phenyl)-4-[[(1R)-2,2-difluoro-1-methyl-propyl]-sulfamoyl]-1-methyl-pyrrole-2-carboxamide]",7.70,23.7 µM,7.30
"Cn1cc(S(=O)(=O)NC2(C)COC2)cc1C(=O)Nc1cccc(C#N)c1 [Compound 55, N-(3-cyanophenyl)-1-methyl-4-[(3-methyloxetan-3-yl)sulfamoyl]pyrrole-2-carboxamide]",6.68,> 25 µM,6.96
"Cn1cc(S(=O)(=O)NC(C)(C)C)cc1C(=O)Nc1cccc(C#N)c1 [Compound 191, 4-(tert-Butylsulfamoyl)-N-(3-cyanophenyl)-1-methyl-1H-pyrrole-2-carboxamide]",6.74,> 25 µM,6.80
"Cn1cc(S(=O)(=O)NC(C)(C)C)c(F)c1C(=O)Nc1ccc(F)c(Cl)c1F [Compound 212, 4-(tert-Butylsulfamoyl)-N-(3-chloro-2,4-difluorophenyl)-3-fluoro-1-methyl-1H-pyrrole-2-carboxamide]",7.05,> 25 µM,7.40
"CNC(=O)C1(NS(=O)(=O)c2cc(C(=O)Nc3cc(F)c(F)c(Cl)c3)n(C)c2)CC1 [Compound 115, N-(3-Chloro-4,5-difluorophenyl)-1-methyl-4-{[1-(methylcarbamoyl)cyclopropyl]sulfamoyl}-1H-pyrrole-2-carboxamide]",6.52,> 25 µM,6.96
"Cn1cc(S(=O)(=O)NC2(C)COC2)cc1C(=O)Nc1cc(Cl)c(F)c(Cl)c1 [Compound 75, N-(3,5-Dichloro-4-fluorophenyl)-1-methyl-4-[(3-methyloxetan-3-yl)sulfamoyl]-1H-pyrrole-2-carboxamide]",6.74,> 25 µM,6.74
"Cn1cc(S(=O)(=O)NC2(C(F)(F)F)CCC2)c(Cl)c1C(=O)Nc1ccc(F)c(C#N)c1 [Compound 221, 3-Chloro-N-(3-cyano-4-fluorophenyl)-1-methyl-4-{[1-(trifluoro-methyl)cyclobutyl]sulfamoyl}-1H-pyrrole-2-carboxamide]",8.15,> 25 µM,8.22
"Cc1c(F)ccc(NC(=O)c2cc(S(=O)(=O)NC3(C)COC3)cn2C)c1F [Compound 85, N-(2,4-Difluoro-3-methylphenyl)-1-methyl-4-[(3-methyloxetan-3-yl)sulfamoyl]-1H-pyrrole-2-carboxamide]",7.52,> 25 µM,7.30
"CCn1cc(S(=O)(=O)NC(C)C)cc1C(=O)Nc1ccc(F)c(C)c1 [Compound 29, 1-ethyl-N-(4-fluoro-3-methyl-phenyl)-4-(isopropylsulfamoyl)pyrrole-2-carboxamide]",6.82,> 25 µM,6.68
"Cc1cc(NC(=O)c2c(C)c(S(=O)(=O)NC3(C)COC3)c(C)n2C)ccc1F [Compound 88, N-(4-Fluoro-3-methylphenyl)-1,3,5-trimethyl-4-[(3-methyloxetan-3-yl)sulfamoyl]-1H-pyrrole-2-carboxamide]",7.70,> 25 µM,7.52
"C[C@H](NS(=O)(=O)c1cc(C(=O)Nc2ccc(F)c(C#N)c2F)n(C)c1)C(F)(F)F [Compound 196, N-(3-Cyano-2,4-difluorophenyl)-1-methyl-4-{[(1S)-2,2,2-trifluoro-1-methylethyl]sulfamoyl}-1H-pyrrole-2-carboxamide]",7.00,> 25 µM,7.10
"CC(C)NS(=O)(=O)c1cc(C(=O)Nc2cccc(C#N)c2)n(C)c1 [Compound 177, N-(3-Cyanophenyl)-1-methyl-4-[(1-methylethyl)sulfamoyl]-1H-pyrrole-2-carboxamide]",6.48,> 25 µM,6.59
"CC[C@H](NS(=O)(=O)c1cc(C(=O)Nc2ccc(F)c(C#N)c2)n(C)c1)C(F)(F)F [Compound 239, N-(3-Cyano-4-fluorophenyl)-1-methyl-4-{[(1S)-1-(trifluoromethyl)-propyl]sulfamoyl}-1H-pyrrole-2-carboxamide]",7.70,> 25 µM,8.00
"C[C@@H](NS(=O)(=O)c1cc(C(=O)Nc2cccc(C#N)c2)n(C)c1)C(F)(F)F [Compound 158, N-(3-Cyanophenyl)-1-methyl-4-{[(1R)-2,2,2-trifluoro-1-methylethyl]-sulfamoyl}-1H-pyrrole-2-carboxamide]",6.92,> 25 µM,6.44
"C[C@@H](NS(=O)(=O)c1cn(C)c(C(=O)Nc2ccc(F)c(C#N)c2F)c1Cl)C(F)(F)F [Compound 276, 3-chloro-N-(3-cyano-2,4-difluoro-phenyl)-1-methyl-4-[[(1R)-2,2,2-trifluoro-1-methyl-ethyl]sulfamoyl]pyrrole-2-carboxamide]",8.00,> 25 µM,8.00
